Source: US20240067632A1, “WEE1 Degrading Compounds and Uses Thereof” (Bristol-Myers Squibb Company, priority 2022, published 2024)
Read-outs that look alike come from different tables or passages of the source.

Columns and labels:
WEE1 = target: T1, WEE1 (Homo sapiens, UniProt P30291+Q96SW2); test: WEE1-ePL degradation assay (LentiX-WEE1-ePL-GSPT1-ND cells, InCELL Hunter luminescence, 4 h); type: cell-based; conditions: 293T-LentiX WEE1-ePL cells; for DC50: read-out: 293T-LentiX WEE1-ePL Degradation 4 hr (EC50)
T1 construct: C-terminal ePL-tagged (DiscoverX, Fremont, CA) full-length WEE1 expression construct; expressed in transfected cells; host or cells: LentiX-HEK293T (Invitrogen), lentiviral transduction; co-expressing GSPT1-GN (G576N, lacking the first 158 amino acids)
Outline: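 Degradation EC50 was fitted by a four-parameter logistic model, with the upper limit taken from DMSO wells. Luminescence was read with InCELL Hunter reagent after 30 min at room temperature, following a 4 h, 37° C exposure of 2500 cells/well. Cells were LentiX-HEK293T carrying ePL-tagged full-length WEE1, dosed in 10 points (3-fold) from 1 or 10 uM.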

MKN45 cells = test: MKN45 cell proliferation assay (Cell-Titer-Glo, 120 h); type: cell-based; conditions: for EC50: Homo sapiens, MKN-45, 120 h, Cell-Titer-Glo, read-out: MKN45 Cell Prolif. 120 hr (EC50); for MKN45 Cell Prolif. 120 hr (Ymin-Obs): minimal percent of DMSO control observed in the concentrations tested
Outline: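 Cells seeded at 400/well onto pre-printed 10-point half-log dilutions (top 1 or 10 uM, 0.1% DMSO final), in triplicate, and grown 120 h at 37 C. Viability by Cell-Titer-Glo luminescence, blank-subtracted and normalised to DMSO; EC50 from four-parameter logistic fit, with observed minimal % of control recorded as Ymin-obs.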

[1] = lower limit of the fit (0 = luciferase inhibitor, Ymax = DMSO control)
[2] = lower limit of the fit (Ymin=0 luciferase inhibitor, Ymax DMSO control)

CN(C)C(=O)c1ccc2cc(CN3CC[C@H](Oc4ccc5c(c4)CN(C4CCC(=O)NC4=O)C5=O)C3)ccc2n1 (stereo partly drawn) [6-{[(3S)-3-{[2-(2,6-dioxopiperidin-3-yl)-1-oxo-2,3-dihydro-1H-isoindol-5-yl]oxy}pyrrolidin-1-yl]methyl}-N,N-dimethylquinoline-2-carboxamide]
293T-LentiX WEE1-ePL Degradation 4 hr (Ymin) (WEE1; [1]): 29.42 | DC50 (WEE1): 0.00905 µM | EC50 (MKN45 cells; growth inhibition): 0.0175 µM | MKN45 Cell Prolif. 120 hr (Ymin-Obs) (MKN45 cells): 8.56

CNC(=O)c1ncc2cc(CN3CC[C@H](Oc4ccc5c(c4)CN(C4CCC(=O)NC4=O)C5=O)C3)ccc2n1 (stereo partly drawn) [6-{[(3S)-3-{[2-(2,6-dioxopiperidin-3-yl)-1-oxo-2,3-dihydro-1H-isoindol-5-yl]oxy}pyrrolidin-1-yl]methyl}-N-methylquinazoline-2-carboxamide]
293T-LentiX WEE1-ePL Degradation 4 hr (Ymin) (WEE1; [1]): 38 | DC50 (WEE1): 0.175 µM | EC50 (MKN45 cells; growth inhibition): 0.337 µM | MKN45 Cell Prolif. 120 hr (Ymin-Obs) (MKN45 cells): 8.51

CNC(=O)c1ccc2cc(CN3CC[C@H](Oc4ccc5c(c4)CN(C4CCC(=O)NC4=O)C5=O)C3)ccc2n1 (stereo partly drawn) [6-{[(3S)-3-{[2-(2,6-dioxopiperidin-3-yl)-1-oxo-2,3-dihydro-1H-isoindol-5-yl]oxy}pyrrolidin-1-yl]methyl}-N-methylquinoline-2-carboxamide]
293T-LentiX WEE1-ePL Degradation 4 hr (Ymin) (WEE1; [1]): 26.91 | DC50 (WEE1): 0.00427 µM | EC50 (MKN45 cells; growth inhibition): 0.0117 µM | MKN45 Cell Prolif. 120 hr (Ymin-Obs) (MKN45 cells): 9.36

N#Cc1ccc(CN2CC[C@H](Oc3ccc4c(c3)CN(C3CCC(=O)NC3=O)C4=O)C2)nc1 (stereo partly drawn) [6-{[(3S)-3-{[2-(2,6-dioxopiperidin-3-yl)-1-oxo-2,3-dihydro-1H-isoindol-5-yl]oxy}pyrrolidin-1-yl]methyl}pyridine-3-carbonitrile]
293T-LentiX WEE1-ePL Degradation 4 hr (Ymin) (WEE1; [1]): 64 | DC50 (WEE1): 0.061 µM | EC50 (MKN45 cells; growth inhibition): > 10 µM | MKN45 Cell Prolif. 120 hr (Ymin-Obs) (MKN45 cells): 69.48

N#Cc1ncc2cc(CN3CC[C@H](Oc4ccc5c(c4)CN(C4CCC(=O)NC4=O)C5=O)C3)ccc2n1 (stereo partly drawn) [6-{[(3S)-3-{[2-(2,6-dioxopiperidin-3-yl)-1-oxo-2,3-dihydro-1H-isoindol-5-yl]oxy}pyrrolidin-1-yl]methyl}quinazoline-2-carbonitrile]
293T-LentiX WEE1-ePL Degradation 4 hr (Ymin) (WEE1; [1]): 35 | DC50 (WEE1): 0.0121 µM | EC50 (MKN45 cells; growth inhibition): 0.073 µM | MKN45 Cell Prolif. 120 hr (Ymin-Obs) (MKN45 cells): 17.27

N#Cc1ccc2cc(CN3CC[C@H](Oc4ccc5c(c4)CN(C4CCC(=O)NC4=O)C5=O)C3)ccc2n1 (stereo partly drawn) [6-{[(3S)-3-{[2-(2,6-dioxopiperidin-3-yl)-1-oxo-2,3-dihydro-1H-isoindol-5-yl]oxy}pyrrolidin-1-yl]methyl}quinoline-2-carbonitrile]
293T-LentiX WEE1-ePL Degradation 4 hr (Ymin) (WEE1; [1]): 27.49 | DC50 (WEE1): 0.00305 µM | EC50 (MKN45 cells; growth inhibition): 0.00792 µM | MKN45 Cell Prolif. 120 hr (Ymin-Obs) (MKN45 cells): 9.504

NC(=O)c1ccc2cc(CN3CC[C@H](Oc4ccc5c(c4)CN(C4CCC(=O)NC4=O)C5=O)C3)ccc2n1 (stereo partly drawn) [6-{[(3S)-3-{[2-(2,6-dioxopiperidin-3-yl)-1-oxo-2,3-dihydro-1H-isoindol-5-yl]oxy}pyrrolidin-1-yl]methyl}quinoline-2-carboxamide]
293T-LentiX WEE1-ePL Degradation 4 hr (Ymin) (WEE1; [1]): 26.545 | DC50 (WEE1): 0.00353 µM | EC50 (MKN45 cells; growth inhibition): 0.0171 µM | MKN45 Cell Prolif. 120 hr (Ymin-Obs) (MKN45 cells): 10.71

N#Cc1cnc2ccc(CN3CC[C@H](Oc4ccc5c(c4)CN(C4CCC(=O)NC4=O)C5=O)C3)cc2c1 (stereo partly drawn) [6-{[(3S)-3-{[2-(2,6-dioxopiperidin-3-yl)-1-oxo-2,3-dihydro-1H-isoindol-5-yl]oxy}pyrrolidin-1-yl]methyl}quinoline-3-carbonitrile]
293T-LentiX WEE1-ePL Degradation 4 hr (Ymin) (WEE1; [1]): 33 | DC50 (WEE1): 0.00418 µM | EC50 (MKN45 cells; growth inhibition): 0.044 µM | MKN45 Cell Prolif. 120 hr (Ymin-Obs) (MKN45 cells): 12.18

N#Cc1ccc2cc(CN3CC[C@H](Oc4ccc5c(c4F)CN(C4CCC(=O)NC4=O)C5=O)C3)ccc2n1 (stereo partly drawn) [6-{[(3S)-3-{[2-(2,6-dioxopiperidin-3-yl)-4-fluoro-1-oxo-2,3-dihydro-1H-isoindol-5-yl]oxy}pyrrolidin-1-yl]methyl}quinoline-2-carbonitrile]
293T-LentiX WEE1-ePL Degradation 4 hr (Ymin) (WEE1; [1]): 47 | DC50 (WEE1): 0.0615 µM | EC50 (MKN45 cells; growth inhibition): 1.43 µM | MKN45 Cell Prolif. 120 hr (Ymin-Obs) (MKN45 cells): 62.465

N#Cc1ccc2cc(CN3CC[C@H](Oc4cc5c(cc4F)C(=O)N(C4CCC(=O)NC4=O)C5)C3)ccc2n1 (stereo partly drawn) [6-{[(3S)-3-{[2-(2,6-dioxopiperidin-3-yl)-6-fluoro-1-oxo-2,3-dihydro-1H-isoindol-5-yl]oxy}pyrrolidin-1-yl]methyl}quinoline-2-carbonitrile]
293T-LentiX WEE1-ePL Degradation 4 hr (Ymin) (WEE1; [1]): 30.5 | DC50 (WEE1): 0.00528 µM | EC50 (MKN45 cells; growth inhibition): 0.0238 µM | MKN45 Cell Prolif. 120 hr (Ymin-Obs) (MKN45 cells): 8.55

N#Cc1ccc2cc(CN3CC[C@H](Oc4cc(F)c5c(c4)CN(C4CCC(=O)NC4=O)C5=O)C3)ccc2n1 (stereo partly drawn) [6-{[(3S)-3-{[2-(2,6-dioxopiperidin-3-yl)-7-fluoro-1-oxo-2,3-dihydro-1H-isoindol-5-yl]oxy}pyrrolidin-1-yl]methyl}quinoline-2-carbonitrile]
293T-LentiX WEE1-ePL Degradation 4 hr (Ymin) (WEE1; [1]): 100.5 | EC50 (MKN45 cells; growth inhibition): > 10 µM | MKN45 Cell Prolif. 120 hr (Ymin-Obs) (MKN45 cells): 84.865

N#Cc1ccc2cc(CN3C[C@@H](Oc4ccc5c(c4)CN(C4CCC(=O)NC4=O)C5=O)C(F)(F)C3)ccc2n1 (stereo partly drawn) [6-{[(4R)-4-{[2-(2,6-dioxopiperidin-3-yl)-1-oxo-2,3-dihydro-1H-isoindol-5-yl]oxy}-3,3-difluoropyrrolidin-1-yl]methyl}quinoline-2-carbonitrile]
293T-LentiX WEE1-ePL Degradation 4 hr (Ymin) (WEE1; [1]): 30.83 | DC50 (WEE1): 0.0202 µM | EC50 (MKN45 cells; growth inhibition): 0.0229 µM | MKN45 Cell Prolif. 120 hr (Ymin-Obs) (MKN45 cells): 22.8

O=C1CC[C@@H](N2Cc3cc(O[C@H]4CCN(Cc5ccc6ncccc6c5)C4)ccc3C2=O)C(=O)N1 [(3R)-3-(1-oxo-5-{[(3S)-1-[(quinolin-6-yl)methyl]pyrrolidin-3-yl]oxy}-2,3-dihydro-1H-isoindol-2-yl)piperidine-2,6-dione]
293T-LentiX WEE1-ePL Degradation 4 hr (Ymin) (WEE1; [1]): 26.94 | DC50 (WEE1): 0.00355 µM | EC50 (MKN45 cells; growth inhibition): 0.0265 µM | MKN45 Cell Prolif. 120 hr (Ymin-Obs) (MKN45 cells): 12.45

O=C1CC[C@@H](N2Cc3cc(O[C@H]4CCN(Cc5ccc6nc(N7CCOCC7)ncc6c5)C4)ccc3C2=O)C(=O)N1 [(3R)-3-(5-{[(3S)-1-{[2-(morpholin-4-yl)quinazolin-6-yl]methyl}pyrrolidin-3-yl]oxy}-1-oxo-2,3-dihydro-1H-isoindol-2-yl)piperidine-2,6-dione]
293T-LentiX WEE1-ePL Degradation 4 hr (Ymin) (WEE1; [2]): 31.07 | DC50 (WEE1): 0.0463 µM | EC50 (MKN45 cells): 0.0238 µM | MKN45 Cell Prolif. 120 hr (Ymin-Obs) (MKN45 cells): 17.43

O=C1CC[C@@H](N2Cc3cc(O[C@H]4CCN(Cc5ccc6nc(C7CCOCC7)ccc6c5)C4)ccc3C2=O)C(=O)N1 [(3R)-3-(5-{[(3S)-1-{[2-(oxan-4-yl)quinolin-6-yl]methyl}pyrrolidin-3-yl]oxy}-1-oxo-2,3-dihydro-1H-isoindol-2-yl)piperidine-2,6-dione]
293T-LentiX WEE1-ePL Degradation 4 hr (Ymin) (WEE1; [1]): 33 | DC50 (WEE1): 0.00675 µM | EC50 (MKN45 cells; growth inhibition): 0.00612 µM | MKN45 Cell Prolif. 120 hr (Ymin-Obs) (MKN45 cells): 9.677

O=C1CC[C@@H](N2Cc3cc(O[C@H]4CCN(Cc5cc(F)c6nc(C7CCOCC7)ccc6c5)C4)ccc3C2=O)C(=O)N1 [(3R)-3-(5-{[(3S)-1-{[8-fluoro-2-(oxan-4-yl)quinolin-6-yl]methyl}pyrrolidin-3-yl]oxy}-1-oxo-2,3-dihydro-1H-isoindol-2-yl)piperidine-2,6-dione]
293T-LentiX WEE1-ePL Degradation 4 hr (Ymin) (WEE1; [2]): 32.17 | DC50 (WEE1): 0.00949 µM | EC50 (MKN45 cells): 0.00219 µM | MKN45 Cell Prolif. 120 hr (Ymin-Obs) (MKN45 cells): 9.2

O=C1CC[C@H](N2Cc3cc(O[C@H]4CCN(Cc5ccc6nc([C@H]7CCOC7)ncc6c5)C4)ccc3C2=O)C(=O)N1 [(3S)-3-(1-oxo-5-{[(3S)-1-({2-[(3R)-oxolan-3-yl]quinazolin-6-yl}methyl)pyrrolidin-3-yl]oxy}-2,3-dihydro-1H-isoindol-2-yl)piperidine-2,6-dione]
293T-LentiX WEE1-ePL Degradation 4 hr (Ymin) (WEE1; [1]): 31 | DC50 (WEE1): 0.0178 µM | EC50 (MKN45 cells; growth inhibition): 0.0146 µM | MKN45 Cell Prolif. 120 hr (Ymin-Obs) (MKN45 cells): 8.266

O=C1CC[C@H](N2Cc3cc(O[C@H]4CCN(Cc5ccc6nc([C@H]7CCOC7)ccc6c5)C4)ccc3C2=O)C(=O)N1 [(3S)-3-(1-oxo-5-{[(3S)-1-({2-[(3R)-oxolan-3-yl]quinolin-6-yl}methyl)pyrrolidin-3-yl]oxy}-2,3-dihydro-1H-isoindol-2-yl)piperidine-2,6-dione]
293T-LentiX WEE1-ePL Degradation 4 hr (Ymin) (WEE1; [1]): 35.5 | DC50 (WEE1): 0.00259 µM | EC50 (MKN45 cells; growth inhibition): 0.00268 µM | MKN45 Cell Prolif. 120 hr (Ymin-Obs) (MKN45 cells): 8.547
